The experiment has as its target T1, hyaluronidase (HAase) (Bos taurus, UniProt Q2YDK3).
T1 construct: Hyaluronidase was obtained from bovine testes (Sigma-Aldrich, St. Louis, MO, USA); purchased Sigma-Aldrich; host or cells: bovine testes (tissue-derived)
T1 sequence (Q2YDK3 36-553): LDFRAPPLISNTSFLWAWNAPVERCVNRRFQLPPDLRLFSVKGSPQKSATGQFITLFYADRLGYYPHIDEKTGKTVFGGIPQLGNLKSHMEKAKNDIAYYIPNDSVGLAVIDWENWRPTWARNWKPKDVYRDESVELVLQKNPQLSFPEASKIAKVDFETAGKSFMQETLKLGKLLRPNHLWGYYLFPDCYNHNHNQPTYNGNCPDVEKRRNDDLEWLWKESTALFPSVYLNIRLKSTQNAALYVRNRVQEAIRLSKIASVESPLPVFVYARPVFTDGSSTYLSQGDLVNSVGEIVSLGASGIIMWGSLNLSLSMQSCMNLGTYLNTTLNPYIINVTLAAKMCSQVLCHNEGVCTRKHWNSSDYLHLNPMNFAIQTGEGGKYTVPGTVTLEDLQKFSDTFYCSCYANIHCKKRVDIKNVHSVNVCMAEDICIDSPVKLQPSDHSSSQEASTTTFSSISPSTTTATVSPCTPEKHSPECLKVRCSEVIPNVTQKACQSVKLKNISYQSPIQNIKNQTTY
The experiment can be described thus: Hyaluronidase inhibitory activity enzymatic assay (HA substrate, DMAB, absorbance 540 nm). The following applies: hyaluronidase from bovine testes; EGCG positive control. Format: biochemical. From the text:
Luria–Bertani Broth (LB) and Lactobacilli MRS Broth (Becton, Franklin Lakes, NJ, USA) were used for the bacterial culture. Silica gel (Merck, Darmstadt, Germany) and Sephadex LH-20 gel (Sigma-Aldrich, St. Louis, MO, USA) were used for chromatographic separations. Thin-layer chromatography (TLC) plates (Merck, Darmstadt, Germany) were used for analytical purposes. Hyaluronidase was obtained from bovine testes (Sigma-Aldrich, St. Louis, MO, USA). Nuclear magnetic resonance (NMR) spectrums were obtained using JNM-ECX 400 (FT-NMR system, 400 MHz, JEOL Co., Akishima, Japan).
In the enzymatic assay, 5 μL of hyaluronidase enzyme and 12.5 mM CaCl2 samples at varying concentrations were added to a 96-well plate. The samples were reacted for 20 min and incubated at 37 °C. After the initial incubation, 25 μL of the substrate solution (HA at a concentration of 2.4 mg/mL) was added. The reaction mixture was incubated again at 37 °C for 40 min. Then, 5 μL of 0.4 N NaOH and 5 μL of 0.4 M potassium tetraborate were added to the mixture, followed by incubation at 100 °C for 3 min. After cooling, 150 μL of DMAB solution (p-dimethylaminobenzaldehyde + acetic acid + 10 N HCL) was added to the reaction mixture. The absorbance of the reaction mixture was measured at 540 nm. Epigallocatechin gallate (EGCG) was used as a positive control in this assay.

The IC50 is the midpoint of a concentration-inhibition curve.

With `O=C(O[C@@H]1Cc2c(O)cc(O)cc2O[C@@H]1c1cc(O)c(O)c(O)c1)c1cc(O)c(O)c(O)c1` [EGCG, Epigallocatechin gallate], the IC50 worked out at 172 µM. In turn, `COC(=O)Cc1c[nH]c2ccccc12` [Methyl indole-3-acetate, methyl indole-3-acetate] yielded an IC50 of 344 µM.
